In test [1] the test system is Colo205 cells. The experiment in a line: Cell-based proliferation assay for determination of GI50 values (CyQUANT). Also on record: species or system Human. The settings on record: concentration for 50% inhibition of cell growth, read-out: Gl50 (Colo205). As to the method: Human cancer cell lines (e.g. Colo205) were obtained from ATCC. Colo205 cells were cultivated in RPMI 1640 containing 2 mM L-Glutamine, 5% FBS, 1.0 mM Na Pyruvate. Colo205 cells were seeded in 96-wells plate at 5000 cells per well. The plates were incubated at 37°C, 5% CO2, for 24 h. Cells were treated with compounds at various concentrations for 96 h. Cell growth was then monitored using CyQUANT® cell proliferation assay (Invitrogen Pte Ltd). Dose response curves were plotted to determine Gl50 values for the compounds using XL-fit (ID Business Solution, Emeryville, CA). Gl50 is defined as the concentration of compound required for 50% inhibition of cell growth.

Test [2] concerns the target T1, HDAC1 enzyme (Homo sapiens, UniProt Q13547).
T1 construct: Amplification of human HDAC1 coding region from this cDNA library was cloned separately into the baculovirus expression pDEST20 vector; made in house; host or cells: SF9 insect cells (baculovirus, pDEST20 vector)
Nature of the test: In vitro HDAC assay for determination of IC50 values (BIOMOL fluorescent-based HDAC activity assay). The settings on record: recombinant GST-HDAC1, 500 uM Flur de lys substrate, room temperature 2 h; read-out: IC50 (HDAC 1). It is filed as biochemical. As to the method:
Human cDNA library was prepared using cultured SW620 cells. Amplification of human HDAC1 coding region from this cDNA library was cloned separately into the baculovirus expression pDEST20 vector (GATEWAY Cloning Technology, Invitrogen Pte Ltd). The pDEST20-HDAC1 construct was confirmed by DNA sequencing. Recombinant baculovirus was prepared using the Bac-To-Bac method following the manufacturer's instruction (Invitrogen Pte Ltd).
Expression of GST-HDAC1 was done by infecting SF9 cells (Invitrogen Pte Ltd) with pDEST20-HDAC1 baculovirus at MOI=1 for 48 h. Soluble cell lysate was incubated with pre-equilibrated Glutathione Sepharose 4B beads (Amersham) at 4°C for 2 h. The beads were washed with PBS buffer for 3 times. The GST-HDAC1 protein was eluted by elution buffer containing 50 mM Tris, pH8.0, 150mM NaCl, 1% Triton X-100 and 10mM or 20mM reduced Glutathione. The purified GST-HDAC1 protein was dialyzed with HDAC storage buffer containing 10mM Tris, pH7.5, 100mM NaCl and 3mM MgCl2. 20% Glycerol was added to purified GST-HDAC1 protein before storage at -80°C.
The assay has been carried out in 96 well format and the BIOMOL fluorescent-based HDAC activity assay has been applied. The reaction composed of assay buffer, containing 25 mM Tris pH 7.5, 137 mM NaCl, 2.7 mM KCl, 1 mM MgCl2, 1 mg/ml BSA, tested compounds, an appropriate concentration of HDAC1 enzyme, 500 uM Flur de lys generic substrate for HDAC1 enzyme and subsequently was incubated at room temperature for 2 h. Flur de lys Developer was added and the reaction was incubated for 10 min. Briefly, deacetylation of the substrate sensitizes it to the developer, which then generates a fluorophore. The fluorophore is excited with 360 nm light and the emitted light (460 nm) is detected on a fluorometric plate reader (Tecan Ultra Microplate detection system, Tecan Group Ltd.).
The analytical software, Prism 4.0 (GraphPad Software Inc) has been used to generate IC50 from a series of data. IC50 is defined as the concentration of compound required for 50% inhibition of HDAC enzyme activity.

[3] abbreviates: Homo sapiens, COLO 205, compound treatment 96 h.

pIC50: −log10 of the molar value. Read-outs that look alike come from different tables or passages of the source.

T1 sequence (Q13547 whole entry): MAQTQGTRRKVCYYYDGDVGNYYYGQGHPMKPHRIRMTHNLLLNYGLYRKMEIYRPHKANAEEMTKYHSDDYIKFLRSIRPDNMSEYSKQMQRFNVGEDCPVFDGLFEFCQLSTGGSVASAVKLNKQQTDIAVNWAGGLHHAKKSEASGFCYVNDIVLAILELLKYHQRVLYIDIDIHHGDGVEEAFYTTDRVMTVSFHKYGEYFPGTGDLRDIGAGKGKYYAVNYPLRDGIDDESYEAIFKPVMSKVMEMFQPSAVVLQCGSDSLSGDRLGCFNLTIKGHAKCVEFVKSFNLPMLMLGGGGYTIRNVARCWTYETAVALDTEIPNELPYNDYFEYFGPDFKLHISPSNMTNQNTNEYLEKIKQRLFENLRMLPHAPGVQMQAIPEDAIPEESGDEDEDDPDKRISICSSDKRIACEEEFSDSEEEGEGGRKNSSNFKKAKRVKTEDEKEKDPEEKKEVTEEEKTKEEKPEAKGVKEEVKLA

Turning to “3-(2-Butyl-3-{(ethyl-(2-methyl-pentyl)-amino]-methyl}-imidazo[1,2-a]pyridin-7-yl)-N-hydroxy-acrylamide [Compound 41]”, the pIC50 in test [1] (compound treatment 96 h) was 6.43.

For the compound `CC(C)(C)CNCc1c(C(C)(C)C)nc2cc(C=CC(=O)NO)ccn12` [Compound 1, 3-{2-tert-Butyl-3-[(2,2-dimethyl-propylamino)-methyl]-imidazo[1,2-a]pyridin-7-yl}-N-hydroxy-acrylamide], the pIC50 in test [2] was 6.72; in test [1] (setting [3]), 5.82. In the same order, the values of `CCC(CC)NCc1c(C(C)(C)C)nc2cc(C=CC(=O)NO)ccn12` [Compound 2, 3-{2-tert-Butyl-3-[(1-ethyl-propylamino)-methyl]-imidazo[1,2-a]pyridin-7-yl}-N-hydroxy-acrylamide] are 6.80 and 5.82. With `CC(C)(C)NCc1c(C(C)(C)C)nc2cc(C=CC(=O)NO)ccn12` [Compound 3, 3-[2-tert-Butyl-3-(tert-butylamino-methyl)-imidazo[1,2-a]pyridin-7-yl]-N-hydroxy-acrylamide], the pIC50 in test [2] was 6.89; in test [1] (setting [3]), 6.13. In the same order, the values of `CCCCNCc1c(CCCC)nc2cc(C=CC(=O)NO)ccn12` [Compound 4, 3-(2-Butyl-3-butylaminomethyl-imidazo[1,2-a]pyridin-7-yl)-N-hydroxy-acrylamide] are 7.70 and 6.74. In the same order, the values of `CCCCc1nc2cc(C=CC(=O)NO)ccn2c1CN(CCC)CCC` [Compound 6, 3-(2-Butyl-3-dipropylaminomethyl-imidazo[1,2-a]pyridin-7-yl)-N-hydroxy-acrylamide] are 6.70 and 6.21. In the same order, the values of `CCCCc1nc2cc(C=CC(=O)NO)ccn2c1CN(CC)CC` [Compound 7, 3-(2-Butyl-3-diethylaminomethyl-imidazo[1,2-a]pyridin-7-yl)-N-hydroxy-acrylamide] are 6.74 and 6.17.

For `CCCCc1nc2cc(C=CC(=O)NO)ccn2c1CN(C)CCCC` [Compound 8, 3-{2-Butyl-3-[(butyl-methyl-amino)-methyl]-imidazo[1,2-a]pyridin-7-yl}-N-hydroxy-acrylamide], the figures for the pIC50 in test [2] and in test [1] (setting [3]) were 7.15 and 6.77, respectively. In the same order, the values of `CCCCc1nc2cc(C=CC(=O)NO)ccn2c1CN(CC)CCCC` [Compound 9, 3-{2-Butyl-3-[(butyl-ethyl-amino)-methyl]-imidazo[1,2-a]pyridin-7-yl}-N-hydroxy-acrylamide] are 7.22 and 6.80. In the same order, the values of `CCCCc1nc2cc(C=CC(=O)NO)ccn2c1CN(CCC)CCCC` [Compound 10, 3-{2-Butyl-3-[(butyl-propyl-amino)-methyl]-imidazo[1,2-a]pyridin-7-yl}-N-hydroxy-acrylamide] are 7.05 and 6.24. In the same order, the values of `CCN(CC)Cc1c(C(C)(C)C)nc2cc(C=CC(=O)NO)ccn12` [Compound 11, 3-(2-tert-Butyl-3-diethylaminomethyl-imidazo[1,2-a]pyridin-7-yl)-N-hydroxy-acrylamide] are 5.92 and 5.36. Take `CCCCN(CCCC)Cc1c(C)nc2cc(/C=C/C(=O)NO)ccn12` [Compound 12, 3-(3-Dibutylaminomethyl-2-methyl-imidazo[1,2-a]pyridin-7-yl)-N-hyroxy-acrylamide]: the pIC50 in test [2] was 7.10; in test [1] (setting [3]) it was 6.10. For the compound `CCCN(CC)Cc1c(C(C)(C)C)nc2cc(C=CC(=O)NO)ccn12` [Compound 13, 3-{2-tert-Butyl-3-[(ethyl-propyl-amino)-methyl]-imidazo[1,2-a]pyridin-7-yl}-N-hydroxy-acrylamide], the pIC50 is 6.57 in test [2] and 5.74 in test [1] (setting [3]).

Take `CCCCc1nc2cc(C=CC(=O)NO)ccn2c1CN(C)C` [Compound 14, 3-(2-Butyl-3-dimethylaminomethyl-imidazo[1,2-a]pyridin-7-yl)-N-hydroxy-acrylamide]: the pIC50 in test [2] was 7.40; in test [1] (setting [3]) it was 6.64. Regarding `CCNCc1c(C(C)(C)C)nc2cc(C=CC(=O)NO)ccn12` [Compound 15, 3-(2-tert-Butyl-3-ethylaminomethyl-imidazo[1,2-a]pyridin-7-yl)-N-hydroxy-acrylamide], the pIC50 in test [2] was 7.22; in test [1] (setting [3]), 6.33. In the same order, the values of `CCCCN(CC)Cc1c(C(C)(C)C)nc2cc(C=CC(=O)NO)ccn12` [Compound 16, 3-{2-tert-Butyl-3-[(butyl-ethyl-amino)-methyl]-imidazo[1,2-a]pyridin-7-yl}-N-hydroxy-acrylamide] are 7.22 and 6.17. In the same order, the values of `CCN(Cc1c(C(C)(C)C)nc2cc(C=CC(=O)NO)ccn12)CC(C)C` [Compound 17, 3-{2-tert-Butyl-3-[(ethyl-isobutyl-amino)-methyl]-imidazo[1,2-a]pyridin-7-yl}-N-hydroxy-acrylamide] are 6.24 and 5.41. In the same order, the values of `CCCCCN(CC)Cc1c(C(C)(C)C)nc2cc(C=CC(=O)NO)ccn12` [Compound 18, 3-{2-tert-Butyl-3-[(ethyl-pentyl-amino)-methyl]-imidazo[1,2-a]pyridin-7-yl}-N-hydroxy-acrylamide] are 6.89 and 6.12. For the compound `CCC(C)CN(CC)Cc1c(C(C)(C)C)nc2cc(C=CC(=O)NO)ccn12` (stereo not drawn) [Compound 19, 3-(2-tert-Butyl-3-{[ethyl-(2-methyl-butyl)-amino]-methyl}-imidazo[1,2-a]pyridin-7-yl)-N-hydroxy-acrylamide], the pIC50 in test [1] (setting [3]) is 5.66. As for `CCN(CCC(C)C)Cc1c(C(C)(C)C)nc2cc(C=CC(=O)NO)ccn12` [Compound 20, 3-(2-tert-Butyl-3-{[ethyl-(3-methyl-butyl)-amino]-methyl}-imidazo[1,2-a]pyridin-7-yl)-N-hydroxy-acrylamide], the values for the pIC50 in test [2] and in test [1] (setting [3]) were 7.22 and 6.46, respectively.

In the case of `CCCCCCN(CC)Cc1c(C(C)(C)C)nc2cc(C=CC(=O)NO)ccn12` [Compound 21, 3-{2-tert-Butyl-3-[(ethyl-hexyl-amino)-methyl]-imidazo[1,2-a]pyridin-7-yl}-N-hydroxy-acrylamide], the pIC50 is 6.62 in test [2] and 5.70 in test [1] (setting [3]). In the same order, the values of `CCCC(C)CN(CC)Cc1c(C(C)(C)C)nc2cc(C=CC(=O)NO)ccn12` (stereo not drawn) [Compound 22, 3-(2-tert-Butyl-3-{[ethyl-(2-methyl-pentyl)-amino]-methyl}-imidazo[1,2-a]pyridin-7-yl)-N-hydroxy-acrylamide] are 6.33 and 5.68. In the same order, the values of `CCN(CCC(C)(C)C)Cc1c(C(C)(C)C)nc2cc(C=CC(=O)NO)ccn12` [Compound 23, 3-(2-tert-Butyl-3-{[(3,3-dimethyl-butyl)-ethyl-amino]-methyl}-imidazo[1,2-a]pyridin-7-yl)-N-hydroxy-acrylamide] are 7.15 and 6.32. For `CCN(CCC(C)C)Cc1c(CC(C)C)nc2cc(C=CC(=O)NO)ccn12` [Compound 60, 3-(3-{[Ethyl-(3-methyl-butyl)-amino]-methyl}-2-isobutyl-imidazo[1,2-a]pyridin-7-yl)-N-hydroxy-acrylamide], in test [1] (setting [3]), the pIC50 is 6.82.

Source of the values: patent EP2064211B1, “IMIDAZO[1,2-A]PYRIDINE HYDROXYMATE COMPOUNDS THAT ARE INHIBITORS OF HISTONE DEACETYLASE” (MEI Pharma, Inc., priority 2006, dated 2008).
